Test results from patent publication US12606542B2, “[(1,5-diheteroaryl-1H-1,2,4-triazol-3-yl)oxy] acetic acid derivatives as safeners for the protection of useful plants and crop plants” (BAYER AKTIENGESELLSCHAFT, priority 2020, dated 2026).

System: summer wheat (TRZAS; cv. Triso)
Assay: Reduction of damage by mesosulfuron-methyl on summer wheat (greenhouse safener test, post-emergence)
Type: in vivo
Design: key: 0: no reduction in damage (appearance corresponding to the herbicide control); 1: slight reduction in damage; 2: distinct reduction in damage; 3: significant reduction in damage; 4: complete reduction in damage (appearance corresponding to the untreated control)
Details: safener 100 g/ha as WP spray at early leaf stage (BBCH10-BBCH12), then mesosulfuron-methyl 40-60 g/ha; visual assessment 9-13 days after application; crop plant TRZAS
Experimental: 2.1 Relative Action of Selected Compounds of the Invention Using the Example of Reduction of Damage by Mesosulfuron-Methyl on Summer Wheat (TRZAS) The seeds of the crop plants to be treated are laid out in sandy loam in plastic pots (diameter ˜4 cm), covered with soil and grown in a greenhouse under good conditions for germination and growth. The trial plants were treated at the early leaf stage (BBCH10-BBCH12). In the course of this, the inventive compounds of the general formula (I) formulated in the form of wettable powders (WP) were sprayed onto the above-ground parts of the plants as an aqueous suspension with a water application rate corresponding to 800 l/ha with addition of wetting agent (e.g. 0.2% Genapol-LRO or 0.2% Mero) in the specified dose. This was followed by the application of the herbicide. For this purpose, mesosulfuron-methyl, formulated in the form of water-dispersible granules (WG), was sprayed onto the above-ground parts of the plants in the form of an aqueous dispersion with a water application rate corresponding to 800 l/ha with addition of wetting agent (e.g. 0.2% Genapol-LRO or 1 l/ha Biopower) in a dose of 40-60 g/ha. […] 9-13 days after application, the efficacy of the test compounds was assessed visually. […]

Structure (SMILES): COC(=O)COc1nc(-c2ccc(F)cn2)n(-c2ccc(Cl)cn2)n1 [Example I.31-10, Methyl {[1-(5-chloropyridin-2-yl)-5-(5-fluoropyridin-2-yl)-1H-1,2,4-triazol-3-yl]oxy}acetate]
- Efficacy of the safener (efficacy code): 2
